The text below walks through data of patent publication US10793535B2, “Heterocyclic glutaminase inhibitors” (Calithera Biosciences, Inc., priority 2012, dated 2020).

Broadly, the IC50 is the concentration that gives 50% inhibition.

The assay deals with P493-6 (myc "on") cells. Description: Cell proliferation assay. The class given is cell-based. The conditions noted are these: P493-6, 72 h, read-out: Cell prolif P493 72 h IC50. The method, then:
P493-6 (myc “on”) cells were maintained in growth media (RPMI-1640, 10% FBS, 2 mM glutamine, 100 units/ml Penicillin and 100 μg/ml streptomycin) at 37° C. with 5% CO2. For compound assay, P493-6 cells were plated in 96-well V-bottom plates on the day of compound addition in 50 μl of growth media at a cell density of 200,000 cells/ml (10,000 cells/well). Compounds were serially diluted in 100% DMSO at 200-times the final concentration. Compounds were diluted 100-fold into growth media and then 50 μl of this mixture was added to cell plates making the final concentration of DMSO 0.5%. Cells were incubated with compound for 72 hrs at 37° C. with 5% CO2 and analyzed for antiproliferative effects either by Cell Titer Glo (Promega) or FACS analysis using the Viacount (Millipore) kit on the Guava instrument.
Turning to `O=C(Cc1ccccc1)Nc1nnc(CCSCCc2nnc(NC(=O)Cc3ccccc3)s2)s1` [Compound 1], the IC50 came out at 0.47 µM. The figure for `CCCC(=O)OCN(C(=O)Cc1ccccc1)c1nnc(CCCCc2ccc(NC(=O)Cc3ccccc3)nn2)s1` [Compound 402] is 0.054 µM; for `CC(C)(C)OC(=O)NCc1cccc(CC(=O)Nc2nnc(CCCCc3ccc(NC(=O)Cc4cccc(OC(F)(F)F)c4)nn3)s2)c1` [Compound 586] it is 0.031 µM.

As for `CCOC(=O)NCc1cccc(CC(=O)Nc2nnc(CCCCc3ccc(NC(=O)Cc4cccc(OC(F)(F)F)c4)nn3)s2)c1` [Compound 600], the IC50 was determined as 0.008 µM.

For `O=C(Cc1ccccc1OC(F)(F)F)Nc1ccc(CCCCc2nnc(NC(=O)Cc3ccccc3)s2)nn1` [Compound 614], the IC50 stood at 0.082 µM. In the case of `O=C(Cc1ccc(OC(F)(F)F)cc1)Nc1ccc(CCCCc2nnc(NC(=O)Cc3ccccc3)s2)nn1` [Compound 615] it was 0.12 µM.

Regarding `CCCC(=O)OCN(C(=O)Cc1ccccc1)c1nnc(CCCCc2ccc(NC(=O)Cc3cccc(OC(F)(F)F)c3)nn2)s1` [Compound 629], the IC50 was determined as 0.065 µM.

Take `CC(C(=O)Nc1nnc(CCCCc2ccc(NC(=O)Cc3cccc(OC(F)(F)F)c3)nn2)s1)c1ccccc1` (stereo not drawn) [Compound 636]: the IC50 is 0.059 µM. On to `Nc1nnc(CCCCc2ccc(NC(=O)Cc3cccc(OC(F)(F)F)c3)nn2)s1` [Compound 657], for which the IC50 amounted to 1.5 µM.

Turning to `COc1cccc(CC(=O)Nc2nnc(CCCCc3ccc(NC(=O)Cc4cccc(OC(F)(F)F)c4)nn3)s2)c1` [Compound 658], the IC50 came out at 0.04 µM. For the compound `O=C(Cc1cccc(OC(F)(F)F)c1)Nc1ccc(CCCCc2nnc(NC(=O)Cc3cc(F)ccc3F)s2)nn1` [Compound 659], the IC50 was found to be 0.058 µM. The figure for `O=C(Cc1cccc(OC(F)(F)F)c1)Nc1ccc(CCCCc2nnc(NC(=O)Cc3ccc(F)cc3)s2)nn1` [Compound 661] is 0.12 µM. As to `O=C(Cc1cccc(OC(F)(F)F)c1)Nc1ccc(CCCCc2nnc(NC(=O)Cc3cc(F)cc(F)c3)s2)nn1` [Compound 662], the IC50 stood at 0.055 µM. The figure for `O=C(Cc1cccc(OC(F)(F)F)c1)Nc1ccc(CCCCc2nnc(NC(=O)Cc3cccc(F)c3F)s2)nn1` [Compound 663] is 0.089 µM; for `O=C(Cc1cccc(OC(F)F)c1)Nc1ccc(CCCCc2nnc(NC(=O)Cc3ccccc3)s2)nn1` [Compound 666] it is 0.058 µM. In the case of `O=C(Cc1cccc(OC(F)(F)F)c1)Nc1ccc(CCCCc2nnc(NC(=O)Cc3cccc(OC(F)F)c3)s2)nn1` [Compound 668] it was 0.026 µM. Regarding `O=C(Cc1cccc(OC(F)(F)F)c1)Nc1ccc(CCCCc2nnc(NC(=O)Cc3cccc(OCC(F)(F)F)c3)s2)nn1` [Compound 669], the IC50 amounted to 0.026 µM. Turning to `O=C(Cc1cccc(OC(F)(F)F)c1)Nc1ccc(CCCCc2nnc(NC(=O)Cc3cccnc3)s2)nn1` [Compound 671], the IC50 was found to be 0.035 µM. Turning to `O=C(Cc1cccc(OC(F)(F)F)c1)Nc1ccc(CCCCc2nnc(NC(=O)Cc3ccncc3)s2)nn1` [Compound 672], the IC50 was 0.045 µM. The figure for `O=C(Cc1cccc(OC(F)(F)F)c1)Nc1ccc(CCCCc2nnc(NC(=O)Cc3ccccc3F)s2)nn1` [Compound 673] is 0.033 µM. The figure for `CSc1cccc(CC(=O)Nc2nnc(CCCCc3ccc(NC(=O)Cc4cccc(OC(F)(F)F)c4)nn3)s2)c1` [Compound 674] is 0.024 µM; for `O=C(Cc1cccc(OC(F)(F)F)c1)Nc1ccc(CCCCc2nnc(NC(=O)Cc3cncnc3)s2)nn1` [Compound 675] it is 0.04 µM; for `O=C(Cc1cccc(OC(F)(F)F)c1)Nc1ccc(CCCCc2nnc(NC(=O)Cc3cnccn3)s2)nn1` [Compound 676] it is 0.03 µM. The figure for `O=C(Cc1cccc(OC(F)(F)F)c1)Nc1ccc(CCCCc2nnc(NC(=O)Cc3ccon3)s2)nn1` [Compound 677] is 0.056 µM; for `O=C(Cc1cccc(OC(F)(F)F)c1)Nc1ccc(CCCCc2nnc(NC(=O)Cc3cscn3)s2)nn1` [Compound 678] it is 0.026 µM. Regarding `O=C(Cc1cccc(OC(F)(F)F)c1)Nc1ccc(CCCCc2nnc(NC(=O)Cc3cccc(Cl)c3)s2)nn1` [Compound 680], the IC50 stood at 0.033 µM. In the case of `CS(=O)(=O)c1cccc(CC(=O)Nc2nnc(CCCCc3ccc(NC(=O)Cc4cccc(OC(F)(F)F)c4)nn3)s2)c1` [Compound 681] it was 0.019 µM. The figure for `C[S+]([O-])c1cccc(CC(=O)Nc2nnc(CCCCc3ccc(NC(=O)Cc4cccc(OC(F)(F)F)c4)nn3)s2)c1` (stereo not drawn) [Compound 682] is 0.017 µM; for `O=C(Cc1cccc(OC(F)(F)F)c1)Nc1ccc(CCCCc2nnc(NC(=O)Cc3ccc(Cl)nc3)s2)nn1` [Compound 683] it is 0.024 µM; for `COCCC(C(=O)Nc1nnc(CCCCc2ccc(NC(=O)Cc3cccc(OC(F)(F)F)c3)nn2)s1)c1cccnc1` (stereo not drawn) [Compound 684] it is 0.042 µM. In the case of `Cn1cc(CC(=O)Nc2nnc(CCCCc3ccc(NC(=O)Cc4cccc(OC(F)(F)F)c4)nn3)s2)cn1` [Compound 685] it was 0.022 µM; in that of `Cc1c(CC(=O)Nc2nnc(CCCCc3ccc(NC(=O)Cc4cccc(OC(F)(F)F)c4)nn3)s2)cnn1C` [Compound 686], 0.01 µM; in that of `Cn1ccc(CC(=O)Nc2nnc(CCCCc3ccc(NC(=O)Cc4cccc(OC(F)(F)F)c4)nn3)s2)n1` [Compound 687], 0.011 µM. `Cc1nc(CC(=O)Nc2nnc(CCCCc3ccc(NC(=O)Cc4cccc(OC(F)(F)F)c4)nn3)s2)c(C)s1` [Compound 688]: the IC50 stood at 0.012 µM. Consider `O=C(Cc1cccc(OC(F)(F)F)c1)Nc1ccc(CCCCc2nnc(NC(=O)C(O)c3ccccc3)s2)nn1` (stereo not drawn) [Compound 689], for which the IC50 is 0.013 µM. In the case of `O=C(Cc1cccc(OC(F)(F)F)c1)Nc1ccc(CCCCc2nnc(NC(=O)C(OC(=O)C(O)c3ccccc3)c3ccccc3)s2)nn1` (stereo not drawn) [Compound 690], the IC50 worked out at 0.017 µM.

In the case of `N#Cc1cccc(CC(=O)Nc2nnc(CCCCc3ccc(NC(=O)Cc4cccc(OC(F)(F)F)c4)nn3)s2)c1` [Compound 692], the IC50 was 0.02 µM.

Regarding `O=C(Cc1cccc(OC(F)(F)F)c1)Nc1ccc(CCCCc2nnc(NC(=O)Cn3cccn3)s2)nn1` [Compound 693], the half-maximal inhibitory concentration (IC50) came out at 0.07 µM. As to `Cc1nn(C(=O)OC(C)(C)C)c(C)c1CC(=O)Nc1nnc(CCCCc2ccc(NC(=O)Cc3cccc(OC(F)(F)F)c3)nn2)s1` [Compound 694], the IC50 turned out to be 0.029 µM.

In the case of `Cc1n[nH]c(C)c1CC(=O)Nc1nnc(CCCCc2ccc(NC(=O)Cc3cccc(OC(F)(F)F)c3)nn2)s1` [Compound 695], the IC50 was determined as 0.03 µM. In the case of `CC(C)(C)OC(=O)n1cnc(CC(=O)Nc2nnc(CCCCc3ccc(NC(=O)Cc4cccc(OC(F)(F)F)c4)nn3)s2)c1` [Compound 696] it was 0.034 µM; in that of `O=C(Cc1cccc(OC(F)(F)F)c1)Nc1ccc(CCCCc2nnc(NC(=O)Cc3c[nH]cn3)s2)nn1` [Compound 697], 0.05 µM. In the case of `Cc1ccn(CC(=O)Nc2nnc(CCCCc3ccc(NC(=O)Cc4cccc(OC(F)(F)F)c4)nn3)s2)n1` [Compound 698] it was 0.098 µM; in that of `CC(C)c1cn(CC(=O)Nc2nnc(CCCCc3ccc(NC(=O)Cc4cccc(OC(F)(F)F)c4)nn3)s2)nn1` [Compound 699], 0.12 µM; in that of `O=C(Cc1cccc(OC(F)(F)F)c1)Nc1ccc(CCCCc2nnc(NC(=O)Cn3cc(Cl)cn3)s2)nn1` [Compound 700], 0.17 µM.
